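All cell lines were grown in 96-well plates and treated with compound for 48 hours. TGI marks complete inhibition of growth.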
Key:
Test in all cases: NCI anticancer screen, dose series, 48 h
OVCAR-5 ovarian = system: OVCAR-5 ovarian
MALME-3M melanoma = system: MALME-3M melanoma
UACC-62 melanoma = system: UACC-62 melanoma
DU-145 prostate = system: DU-145 prostate
HS 578T breast = system: HS 578T breast
HL-60(TB) leukemia = system: HL-60(TB) leukemia
LOX IMVI melanoma = system: LOX IMVI melanoma
CCRF-CEM leukemia = system: CCRF-CEM leukemia
SF-539 CNS = system: SF-539 CNS
MCF7 breast = system: MCF7 breast
MDA-MB-231 breast = system: MDA-MB-231 breast
NCI-H226 lung = system: NCI-H226 lung
SN12C renal = system: SN12C renal
MOLT-4 leukemia = system: MOLT-4 leukemia
UACC-257 melanoma = system: UACC-257 melanoma

CC1(C)CC(=O)C(CC(C(=O)C(=O)Nc2cc(C(F)(F)F)ccc2Cl)C(=O)c2ccco2)C(=O)C1 (configuration not stated)
TGI (OVCAR-5 ovarian): > 100 µM
TGI (MALME-3M melanoma): > 100 µM
TGI (UACC-62 melanoma): > 100 µM
TGI (DU-145 prostate): > 100 µM
TGI (HS 578T breast): > 100 µM
TGI (HL-60(TB) leukemia): > 100 µM
TGI (LOX IMVI melanoma): > 100 µM
TGI (CCRF-CEM leukemia): > 100 µM
TGI (SF-539 CNS): > 100 µM
TGI (MCF7 breast): > 100 µM
TGI (MDA-MB-231 breast): > 100 µM
TGI (NCI-H226 lung): > 100 µM
TGI (SN12C renal): > 100 µM
TGI (MOLT-4 leukemia): > 100 µM
TGI (UACC-257 melanoma): > 100 µM

O=C1NCC2(CCN(Cc3ccccc3)CC2)N1
TGI (OVCAR-5 ovarian): > 100 µM
TGI (MALME-3M melanoma): > 100 µM
TGI (UACC-62 melanoma): > 100 µM
TGI (DU-145 prostate): > 100 µM
TGI (HS 578T breast): > 100 µM
TGI (HL-60(TB) leukemia): > 100 µM
TGI (LOX IMVI melanoma): > 100 µM
TGI (CCRF-CEM leukemia): > 100 µM
TGI (SF-539 CNS): > 100 µM
TGI (MCF7 breast): > 100 µM
TGI (MDA-MB-231 breast): > 100 µM
TGI (NCI-H226 lung): > 100 µM
TGI (SN12C renal): > 100 µM
TGI (MOLT-4 leukemia): > 100 µM
TGI (UACC-257 melanoma): > 100 µM

C[C@@H](C(=O)O)c1ccc(-c2ccccc2)c(F)c1
TGI (OVCAR-5 ovarian): > 100 µM
TGI (MALME-3M melanoma): > 100 µM
TGI (UACC-62 melanoma): > 100 µM
TGI (DU-145 prostate): > 100 µM
TGI (HS 578T breast): > 100 µM
TGI (HL-60(TB) leukemia): > 100 µM
TGI (LOX IMVI melanoma): > 100 µM
TGI (CCRF-CEM leukemia): > 100 µM
TGI (SF-539 CNS): > 100 µM
TGI (MCF7 breast): > 100 µM
TGI (MDA-MB-231 breast): > 100 µM
TGI (NCI-H226 lung): > 100 µM
TGI (SN12C renal): > 100 µM
TGI (MOLT-4 leukemia): > 100 µM
TGI (UACC-257 melanoma): > 100 µM

Cn1c(=O)oc2cc(C(=S)N3CCC(Cc4ccccc4)CC3)ccc21
TGI (OVCAR-5 ovarian): > 100 µM
TGI (MALME-3M melanoma): > 100 µM
TGI (UACC-62 melanoma): > 100 µM
TGI (DU-145 prostate): > 100 µM
TGI (HS 578T breast): > 100 µM
TGI (HL-60(TB) leukemia): > 100 µM
TGI (LOX IMVI melanoma): > 100 µM
TGI (CCRF-CEM leukemia): > 100 µM
TGI (SF-539 CNS): > 100 µM
TGI (MCF7 breast): > 100 µM
TGI (MDA-MB-231 breast): > 100 µM
TGI (NCI-H226 lung): > 100 µM
TGI (SN12C renal): > 100 µM
TGI (MOLT-4 leukemia): > 100 µM
TGI (UACC-257 melanoma): > 100 µM

Brc1ccccc1/C=C\C1(c2ccccc2)OCCO1
TGI (OVCAR-5 ovarian): 29.5 µM
TGI (MALME-3M melanoma): 29.9 µM
TGI (UACC-62 melanoma): 28 µM
TGI (DU-145 prostate): 26.7 µM
TGI (HS 578T breast): 17.3 µM
TGI (HL-60(TB) leukemia): > 52.3 µM
TGI (LOX IMVI melanoma): 11.6 µM
TGI (CCRF-CEM leukemia): > 33.2 µM
TGI (SF-539 CNS): 25.7 µM
TGI (MCF7 breast): 18.1 µM
TGI (MDA-MB-231 breast): 25.4 µM
TGI (NCI-H226 lung): 38.2 µM
TGI (SN12C renal): 27.4 µM
TGI (MOLT-4 leukemia): 9.23 µM
TGI (UACC-257 melanoma): 34.5 µM

Cc1[nH]c2ncn3ncnc3c2c1Cc1ccccc1
TGI (OVCAR-5 ovarian): > 100 µM
TGI (MALME-3M melanoma): > 100 µM
TGI (UACC-62 melanoma): > 100 µM
TGI (DU-145 prostate): > 100 µM
TGI (HS 578T breast): > 100 µM
TGI (HL-60(TB) leukemia): > 100 µM
TGI (CCRF-CEM leukemia): > 100 µM
TGI (SF-539 CNS): > 100 µM
TGI (MCF7 breast): > 100 µM
TGI (MDA-MB-231 breast): > 100 µM
TGI (NCI-H226 lung): > 100 µM
TGI (SN12C renal): > 100 µM
TGI (MOLT-4 leukemia): > 100 µM
TGI (UACC-257 melanoma): > 100 µM

O=C(Cn1c(C(=O)/C=C/c2ccco2)nc2ccccc21)c1ccc(Cl)cc1
TGI (OVCAR-5 ovarian): > 100 µM
TGI (MALME-3M melanoma): 40.2 µM
TGI (UACC-62 melanoma): > 100 µM
TGI (DU-145 prostate): > 100 µM
TGI (HS 578T breast): 24.6 µM
TGI (HL-60(TB) leukemia): 41 µM
TGI (LOX IMVI melanoma): 26.7 µM
TGI (CCRF-CEM leukemia): 27.4 µM
TGI (SF-539 CNS): > 100 µM
TGI (MCF7 breast): 76.4 µM
TGI (MDA-MB-231 breast): 59.8 µM
TGI (NCI-H226 lung): > 100 µM
TGI (SN12C renal): 61.5 µM
TGI (UACC-257 melanoma): 51.9 µM

OC(c1ccsc1)c1cc2ccccc2s1 (configuration not stated)
TGI (OVCAR-5 ovarian): > 10 µM
TGI (UACC-62 melanoma): > 10 µM
TGI (DU-145 prostate): > 10 µM
TGI (HS 578T breast): > 10 µM
TGI (HL-60(TB) leukemia): > 10 µM
TGI (LOX IMVI melanoma): > 10 µM
TGI (CCRF-CEM leukemia): > 10 µM
TGI (SF-539 CNS): > 10 µM
TGI (MCF7 breast): > 10 µM
TGI (MDA-MB-231 breast): > 10 µM
TGI (NCI-H226 lung): > 10 µM
TGI (SN12C renal): > 10 µM
TGI (MOLT-4 leukemia): > 10 µM
TGI (UACC-257 melanoma): > 10 µM

From PubChem BioAssay (NCI)
